Data published in the supplement of paper PMC10307832.

Columns and labels:
Assay in all cases: relative viability (nuclei count vs DMSO), 5 days (fraction); higher = more cells survive
MK-2206 + Navitoclax = compound: NC1(c2ccc(-c3nc4ccn5c(=O)[nH]nc5c4cc3-c3ccccc3)cc2)CCC1 [MK-2206] + CC1(C)CCC(c2ccc(Cl)cc2)=C(CN2CCN(c3ccc(C(=O)NS(=O)(=O)c4ccc(N[C@H](CCN5CCOCC5)CSc5ccccc5)c(S(=O)(=O)C(F)(F)F)c4)cc3)CC2)C1 [Navitoclax] (partner 0.5 µM)
In short: (§1)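 Lung cancer cell lines in 1536-well plates got either a single drug or a fixed anchor-drug dose together with five library-drug doses (not always all listed) in √10 steps, by pin tool, on the day after seeding. Nuclei were counted after 5 days, and relative viability is the treated-to-vehicle ratio of nuclei counts. Values are medians of duplicate plates.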

MK-2206 + Tozasertib = compound: NC1(c2ccc(-c3nc4ccn5c(=O)[nH]nc5c4cc3-c3ccccc3)cc2)CCC1 [MK-2206] + Cc1cc(Nc2cc(N3CCN(C)CC3)nc(Sc3ccc(NC(=O)C4CC4)cc3)n2)n[nH]1 [Tozasertib] (partner 0.1 µM)
In short: as §1

Pictilisib + Alpelisib = compound: CS(=O)(=O)N1CCN(Cc2cc3nc(-c4cccc5[nH]ncc45)nc(N4CCOCC4)c3s2)CC1 [Pictilisib] + Cc1nc(NC(=O)N2CCC[C@H]2C(N)=O)sc1-c1ccnc(C(C)(C)C(F)(F)F)c1 [Alpelisib] (partner 2 µM)
In short: as §1

Pictilisib + Palbociclib = compound: CS(=O)(=O)N1CCN(Cc2cc3nc(-c4cccc5[nH]ncc45)nc(N4CCOCC4)c3s2)CC1 [Pictilisib] + CC(=O)c1c(C)c2cnc(Nc3ccc(N4CCNCC4)cn3)nc2n(C2CCCC2)c1=O [Palbociclib] (partner 0.5 µM)
In short: as §1

MK-2206 + Crizotinib = compound: NC1(c2ccc(-c3nc4ccn5c(=O)[nH]nc5c4cc3-c3ccccc3)cc2)CCC1 [MK-2206] + C[C@@H](Oc1cc(-c2cnn(C3CCNCC3)c2)cnc1N)c1c(Cl)ccc(F)c1Cl [Crizotinib] (partner 1 µM)
In short: as §1

Cell Line: UMC-11
- relative viability (MK-2206 + Navitoclax; first compound 0.01 µM): 0.309
- relative viability (MK-2206 + Navitoclax; first compound 0.03162 µM): 0.327
- relative viability (MK-2206 + Navitoclax; first compound 0.3162 µM): 0.344
- relative viability (MK-2206 + Navitoclax; first compound 1 µM): 0.29
- relative viability (MK-2206 + Tozasertib; first compound 0.01 µM): 0.194
- relative viability (MK-2206 + Tozasertib; first compound 0.03162 µM): 0.2
- relative viability (MK-2206 + Tozasertib; first compound 0.3162 µM): 0.214
- relative viability (MK-2206 + Tozasertib; first compound 1 µM): 0.192
- relative viability (Pictilisib + Alpelisib; first compound 0.02 µM): 0.942
- relative viability (Pictilisib + Alpelisib; first compound 0.06325 µM): 1.05
- relative viability (Pictilisib + Alpelisib; first compound 0.6325 µM): 1.14
- relative viability (Pictilisib + Alpelisib; first compound 2 µM): 1.17
- relative viability (Pictilisib + Palbociclib; first compound 0.02 µM): 0.334
- relative viability (Pictilisib + Palbociclib; first compound 0.06325 µM): 0.318
- relative viability (Pictilisib + Palbociclib; first compound 0.6325 µM): 0.427
- relative viability (Pictilisib + Palbociclib; first compound 2 µM): 0.376
- relative viability (MK-2206 + Crizotinib; first compound 0.01 µM): 0.61
- relative viability (MK-2206 + Crizotinib; first compound 0.03162 µM): 0.569
- relative viability (MK-2206 + Crizotinib; first compound 0.3162 µM): 0.603
- relative viability (MK-2206 + Crizotinib; first compound 1 µM): 0.707
